{"source": "patent US20230293677A1", "about": "(priority 2020, published 2023)", "key": {"[1]": {"system": "botulinum toxin of type A", "design": "species or system guinea pigs", "conditions": "guinea pig, in vivo"}, "[2]": {"system": "virus of Venezuelan equine encephalomyelitis, strain Trinidad", "design": "species or system outbred male mice", "conditions": "mouse, in vivo"}, "[3]": {"system": "Cowpox virus (CP), Pumenok strain", "design": "species or system outbred male mice", "conditions": "mouse, in vivo"}, "smallpox antigens": {"system": "smallpox antigens", "design": "species or system white outbred male mice", "conditions": "mouse, in vivo"}, "[4]": {"system": "Herpes simplex virus (HSV) of type 1, US strain", "assay": "Herpetic infection model in irradiated mice, survival after immunization", "type": "in vivo, outbred mice", "conditions": "for Number of dead animals, % / Number of survived animals, %: 2.5 LD50 s.c."}, "[5]": {"system": "antigens of the VVE virus", "design": "species or system white outbred male mice", "conditions": "mouse, in vivo"}, "[6]": {"system": "botulinum toxin of type A", "design": "species or system white mice", "conditions": "mouse, in vivo"}, "[7]": {"conditions": "adjuvant 150 μg/individual i.m. 3, 2, 1 days before"}}, "note": "Where two headings read alike, the source gives them in different places."}
{"compound": "Nc1cccc2c([O-])nnc([O-])c12.[Na+].[Na+]", "note": "[Abidov's adjuvant, sodium salt of 5-amino-1,2,3,4-tetrahydrophthalazine-1,4-dione]", "values": [{"measurement": "Survival rate, M (M − tm − M + tm), %", "setting": "[1]", "value": 0, "unit": "%"}, {"measurement": "survival rate of infected mice", "setting": "[2]", "value": "60-100%"}, {"measurement": "adjuvant effect in relation to SLDV", "setting": "[3]", "value": "not possible to identify a pronounced adjuvant effect"}, {"measurement": "effect on the formation of specific orthopoxvirus immunity", "setting": "[3]", "value": "no negative effect"}, {"measurement": "increase in the titer of specific anti-smallpox antibodies compared with animals vaccinated with only SLDV", "setting": "smallpox antigens", "value": 4, "unit": "times"}, {"measurement": "Number of dead animals, %", "setting": "[4]; [7]", "value": 70, "unit": "%"}, {"measurement": "Number of survived animals, %", "setting": "[4]; [7]", "value": 30, "unit": "%"}, {"measurement": "Number of dead animals, %", "setting": "[4]; only adjuvant, single dose", "value": 80, "unit": "%"}, {"measurement": "Number of survived animals, %", "setting": "[4]; only adjuvant, single dose", "value": 20, "unit": "%"}, {"measurement": "increase of the effectiveness of IMP", "setting": "[4]; adjuvant used in immunization schemes with herpetic vaccine", "value": 30, "unit": "%"}, {"measurement": "increase in the level of positive seroconversions compared with animals vaccinated only with VVE", "setting": "[5]", "value": 30, "unit": "%"}, {"measurement": "Survival rate, M (M − tm − M + tm), %", "setting": "[6]", "value": 0, "unit": "%"}]}
